Measured values: PubChem BioAssay (NCI)
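Results reflect a 48-hour exposure of cells in 96-well plates to compound at five concentrations. The concentration for 50% growth inhibition is given as GI50. TGI marks complete inhibition of growth.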

Tests used:
Experiment in all cases: DTP human tumour cell line panel, 48 h
[1] = system: HOP-92 NSCLC
[2] = system: SW-620 colon
[3] = system: 786-0 renal
[4] = system: IGROV1 ovarian
[5] = system: SF-268 CNS
[6] = system: NCI-H226 lung
[7] = system: KM12 colon
[8] = system: U251 CNS
[9] = system: RXF 393 renal
[10] = system: MDA-MB-231 breast
[11] = system: OVCAR-4 ovarian
[12] = system: SNB-75 CNS
[13] = system: BT-549 breast
[14] = system: COLO 205 colon
[15] = system: CCRF-CEM leukemia
[16] = system: NCI/ADR-RES ovarian
[17] = system: UO-31 renal
[18] = system: MCF7 breast
[19] = system: UACC-62 melanoma
[20] = system: OVCAR-5 ovarian
[21] = system: LOX IMVI melanoma
[22] = system: NCI-H460 lung
[23] = system: SF-295 CNS
[24] = system: OVCAR-3 ovarian
[25] = system: A549 NSCLC
[26] = system: SNB-19 CNS
[27] = system: RPMI-8226 leukemia
[28] = system: SF-539 CNS
[29] = system: M14 melanoma
[30] = system: HCT-15 colon
[31] = system: NCI-H522 lung
[32] = system: EKVX NSCLC
[33] = system: MDA-MB-435
[34] = system: CAKI-1 renal
[35] = system: ACHN renal
[36] = system: NCI-H23 lung
[37] = system: HCT-116 colon
[38] = system: SN12C renal
[39] = system: PC-3 prostate
[40] = system: SK-OV-3 ovarian
[41] = system: HT29 colon
[42] = system: HCC-2998 colon
[43] = system: HL-60(TB) leukemia
[44] = system: SK-MEL-5 melanoma
[45] = system: K-562 leukemia
[46] = system: SK-MEL-2 melanoma
[47] = system: HS 578T breast
[48] = system: A498 renal
[49] = system: DU-145 prostate
[50] = system: UACC-257 melanoma
[51] = system: T-47D breast
[52] = system: HOP-62 NSCLC
[53] = system: TK-10 renal
[54] = system: SK-MEL-28 melanoma
[55] = system: SR leukemia
[56] = system: MOLT-4 leukemia
[57] = system: OVCAR-8 ovarian
[58] = system: MDA-N
[59] = system: MALME-3M melanoma

SMILES: C[C@]12CC[C@H]3[C@@H](CCC4=CC(=O)CC[C@@]43C)[C@@H]1CC[C@@H]2c1csc(N)n1
- GI50 [1]: 11 µM
- TGI [1]: 28.5 µM
- GI50 [2]: 5.28 µM
- TGI [2]: 20.8 µM
- GI50 [3]: 10.7 µM
- TGI [3]: 33.4 µM
- GI50 [4]: 4.98 µM
- TGI [4]: 20.6 µM
- GI50 [5]: 5.07 µM
- TGI [5]: 24.1 µM
- GI50 [6]: 4.61 µM
- TGI [6]: 23.7 µM
- GI50 [7]: 3 µM
- TGI [7]: 11.6 µM
- GI50 [8]: 3.83 µM
- TGI [8]: 19 µM
- GI50 [9]: 10.8 µM
- TGI [9]: 24.2 µM
- GI50 [10]: 8.82 µM
- TGI [10]: 28.7 µM
- GI50 [11]: 2.98 µM
- TGI [11]: 27.2 µM
- GI50 [12]: 8.62 µM
- TGI [12]: 24.2 µM
- GI50 [13]: 6.12 µM
- TGI [13]: 21.3 µM
- GI50 [14]: 3.57 µM
- TGI [14]: 14.2 µM
- GI50 [15]: 4.49 µM
- TGI [15]: 49 µM
- GI50 [16]: 2.54 µM
- TGI [16]: 22.4 µM
- GI50 [17]: 2.46 µM
- TGI [17]: 11.2 µM
- GI50 [18]: 3.42 µM
- TGI [18]: 15.5 µM
- GI50 [19]: 2.68 µM
- TGI [19]: 17.8 µM
- GI50 [20]: 15 µM
- TGI [20]: 38.7 µM
- GI50 [21]: 3.38 µM
- TGI [21]: 15.9 µM
- GI50 [22]: 3.46 µM
- TGI [22]: 13.8 µM
- GI50 [23]: 1.27 µM
- TGI [23]: 4.2 µM
- GI50 [24]: 3.38 µM
- TGI [24]: 12.3 µM
- GI50 [25]: 5.77 µM
- TGI [25]: 31.6 µM
- GI50 [26]: 10.2 µM
- TGI [26]: 31.2 µM
- GI50 [27]: 1.21 µM
- TGI [27]: 26.2 µM
- GI50 [28]: 9.2 µM
- TGI [28]: 27 µM
- GI50 [29]: 5.16 µM
- TGI [29]: 21.4 µM
- GI50 [30]: 4.2 µM
- TGI [30]: 19.1 µM
- GI50 [31]: 7.18 µM
- TGI [31]: 24.9 µM
- GI50 [32]: 1.12 µM
- TGI [32]: 8.39 µM
- GI50 [33]: 2.63 µM
- TGI [33]: 10.6 µM
- GI50 [34]: 1.41 µM
- TGI [34]: 13.4 µM
- GI50 [35]: 6.4 µM
- TGI [35]: 40.6 µM
- GI50 [36]: 2.85 µM
- TGI [36]: 19.9 µM
- GI50 [37]: 3.15 µM
- TGI [37]: 15.3 µM
- GI50 [38]: 3.57 µM
- TGI [38]: 24.5 µM
- GI50 [39]: 2.88 µM
- TGI [39]: 47.1 µM
- GI50 [40]: 12.5 µM
- TGI [40]: 33.3 µM
- GI50 [41]: 4.41 µM
- TGI [41]: 18.3 µM
- GI50 [42]: 5.08 µM
- TGI [42]: 19.6 µM
- GI50 [43]: 1.65 µM
- TGI [43]: 8.18 µM
- GI50 [44]: 1.69 µM
- TGI [44]: 5.41 µM
- GI50 [45]: 2.33 µM
- TGI [45]: > 100 µM
- GI50 [46]: 14.5 µM
- TGI [46]: 32.7 µM
- GI50 [47]: 8.84 µM
- TGI [47]: 35.8 µM
- GI50 [48]: 2.51 µM
- TGI [48]: 12.4 µM
- GI50 [49]: 6.72 µM
- TGI [49]: 24.5 µM
- GI50 [50]: 2.75 µM
- TGI [50]: 13 µM
- GI50 [51]: 2.26 µM
- TGI [51]: 18.8 µM
- GI50 [52]: 6.56 µM
- TGI [52]: 23.7 µM
- GI50 [53]: 11.3 µM
- TGI [53]: 43 µM
- GI50 [54]: 10 µM
- TGI [54]: 26 µM
- GI50 [55]: 2.12 µM
- TGI [55]: 12.6 µM
- GI50 [56]: 2.5 µM
- TGI [56]: 11.2 µM
- GI50 [57]: 3.42 µM
- TGI [57]: 26.7 µM

SMILES: O=c1c(F)cn2c(=O)n1CCCCCCCn1c(=O)c(F)cn(c1=O)CCCCCCC2
- TGI [1]: > 100 µM
- TGI [2]: > 100 µM
- TGI [3]: > 100 µM
- TGI [4]: > 100 µM
- TGI [5]: 13.1 µM
- TGI [6]: > 100 µM
- TGI [7]: > 100 µM
- TGI [8]: > 100 µM
- TGI [9]: > 100 µM
- TGI [10]: > 100 µM
- TGI [11]: 98.4 µM
- TGI [12]: 27 µM
- TGI [14]: > 100 µM
- TGI [15]: > 100 µM
- TGI [16]: > 100 µM
- TGI [17]: > 100 µM
- TGI [18]: > 100 µM
- TGI [19]: > 100 µM
- TGI [20]: > 100 µM
- TGI [21]: > 100 µM
- TGI [22]: > 100 µM
- TGI [23]: > 100 µM
- TGI [24]: > 100 µM
- TGI [25]: > 100 µM
- TGI [26]: > 100 µM
- TGI [27]: > 100 µM
- TGI [58]: > 100 µM
- TGI [28]: > 100 µM
- TGI [59]: 88.8 µM
- TGI [29]: > 100 µM
- TGI [30]: > 100 µM
- TGI [31]: > 100 µM
- TGI [32]: > 100 µM
- TGI [33]: > 100 µM
- TGI [34]: > 100 µM
- TGI [35]: > 100 µM
- TGI [36]: > 100 µM
- TGI [37]: > 100 µM
- TGI [38]: > 100 µM
- TGI [39]: > 100 µM
- TGI [40]: > 100 µM
- TGI [41]: > 100 µM
- TGI [42]: > 100 µM
- TGI [43]: > 100 µM
- TGI [44]: > 100 µM
- TGI [45]: > 100 µM
- TGI [46]: > 100 µM
- TGI [48]: > 100 µM
- TGI [49]: 12.4 µM
- TGI [50]: > 100 µM
- TGI [51]: > 100 µM
- TGI [52]: > 100 µM
- TGI [53]: > 100 µM
- TGI [54]: 22.2 µM
- TGI [55]: > 100 µM
- TGI [56]: > 100 µM
- TGI [57]: > 100 µM
